We go through four compounds from paper PMC3674182 (European journal of medicinal chemistry, 2013).

For assay [1], the system named is methicillin-resistant S. aureus (MRSA, ATCC 33591). Briefly: in vitro antibacterial activity. It is filed as cell-based. To be noted: Staphylococcus aureus, ATCC33591|MRSA, read-out: MIC, MRS.
Assay [2] has as its system Leishmania donovani axenic amastigotes. The assay can be described thus: in vitro antileishmanial activity, axenic amastigotes. It counts as cell-based. To be noted: 72 h, read-out: L. donovani IC50, Amastigotes.
Assay [3] deals with intracellular amastigote form of Leishmania. To be noted: cited from earlier work.

In brackets after ≈: the same amount, converted by molar mass.

By MIC is commonly meant the least concentration at which growth counts as inhibited. One may read the IC50 as the midpoint of a concentration-inhibition curve.

Regarding `Oc1ccc(C(c2c[nH]c3ccc(I)cc23)c2c[nH]c3ccc(I)cc23)cc1` [8a, 5,5′-Diiodo-3,3′-(4-hydroxyphenyl-methanediyl)-bisindole], the MIC in assay [1] fell in the range of 2 to 4.3 µM (≈ 1.18 to 2.54 µg/mL). For the compound `N=C(N)c1ccc(OCCCCCOc2ccc(C(=N)N)cc2)cc1` [Pentamidine], the IC50 in assay [2] was found to be 2.9 µM. With N-demethylconodurine, the “activity against the intracellular amastigote form of Leishmania” value in assay [3] is “strong activity”.

Turning to conodurine, in assay [3], the “activity against the intracellular amastigote form of Leishmania” value is listed as “strong activity”.
